Each structure is given as a SMILES string. The source made the active and inactive calls. The calls are words filed in the database; no cut-off is given here. *1 amine or outer side, *2 acyl side, *3 side chain or, on linkers, in order; H or OH if unused. Where a SMILES comes first, the peptide text is derived from it. Bridges are numbered along the chain shown (N, C = ends). [ ]: non-standard residue; d: D form. X1 = O=C([C@H](CC/C=C\[*:3])N[*:1])[*:2]; X2 = O=C([C@H](CC/C=C/[*:3])N[*:1])[*:2]; hCys = N[C@@H](CCS)C(=O)O

One may read the Ki as the equilibrium dissociation constant of an inhibitor or competing ligand from its target. A low value points to tighter binding. As usually defined, the EC50 is the concentration needed to bring the measured effect to its halfway point.

The target of assay [1] is T1, Type-1 angiotensin II receptor B (Rattus norvegicus, UniProt P29089).
T1 sequence (P29089 whole entry): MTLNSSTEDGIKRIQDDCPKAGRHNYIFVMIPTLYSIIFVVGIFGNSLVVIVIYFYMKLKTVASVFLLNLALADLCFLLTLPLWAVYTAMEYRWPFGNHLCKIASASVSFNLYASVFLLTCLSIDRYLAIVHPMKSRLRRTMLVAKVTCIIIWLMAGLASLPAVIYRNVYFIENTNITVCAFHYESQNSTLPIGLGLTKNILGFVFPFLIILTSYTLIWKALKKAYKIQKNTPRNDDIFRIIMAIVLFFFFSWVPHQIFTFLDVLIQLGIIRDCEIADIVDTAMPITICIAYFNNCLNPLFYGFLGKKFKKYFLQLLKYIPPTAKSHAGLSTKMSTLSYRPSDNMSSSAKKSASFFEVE
Nature of the assay: In vitro binding affinity at rat liver Angiotensin II receptor, type 1 was determined based on displacement of [125I]-Ang II. A general note: Displacement assays read how much labelled ligand stays bound in the presence of the test substance.

Another assay is filed under the species Oryctolagus cuniculus. Nature of the assay: Agonistic activity in vascular contractility study on rabbit aorta. It is filed as functional, organism-based.
For assay [2], the target named is T2, Type-1 angiotensin II receptor B (Rattus norvegicus) (UniProt P29089).
T2 sequence (whole entry): T1 sequence (P29089 whole entry)
The assay can be described thus: In vitro binding affinity at rat liver Angiotensin II receptor, type 1 was determined based on displacement of [125I]-Ang II; no affinity.

As to `NC(N)=NCCC[C@H](NC(=O)[C@@H](N)CC(=O)O)C(=O)N[C@H]1CS/C=C\CC[C@@H](C(=O)N[C@@H](Cc2cnc[nH]2)C(=O)N2CCC[C@H]2C(=O)N[C@@H](Cc2ccccc2)C(=O)O)NC(=O)[C@H](Cc2ccc(O)cc2)NC1=O` (H-DRCY[X1]HPF-OH; thioether 3-5), the Ki in assay [1] worked out at 1.7 nM.
On to `NC(N)=NCCC[C@H](NC(=O)[C@@H](N)CC(=O)O)C(=O)N[C@H]1CS/C=C\CC[C@@H](C(=O)N[C@@H](Cc2c[nH]cn2)C(=O)N2CCC[C@H]2C(=O)N[C@@H](Cc2ccccc2)C(=O)O)NC(=O)[C@H](Cc2ccc(O)cc2)NC1=O` (H-DRCY[X1]HPF-OH; thioether 3-5), for which it took 26 nM to reach a half-maximal effect in the assay filed under Oryctolagus cuniculus (EC50).
In assay [1], `NC(N)=NCCC[C@H](NC(=O)[C@@H](N)CC(=O)O)C(=O)N[C@H]1CCSSCC[C@@H](C(=O)N[C@@H](Cc2c[nH]cn2)C(=O)N2CCC[C@H]2C(=O)N[C@@H](Cc2ccccc2)C(=O)O)NC(=O)[C@H](Cc2ccc(O)cc2)NC1=O` (H-DR[hCys]Y[hCys]HPF-OH; disulfide 3-5) gave a Ki of 0.23 nM.
For `CC(C)[C@H](NC(=O)[C@H](CCCN=C(N)N)NC(=O)[C@@H](N)CC(=O)O)C(=O)N[C@@H](Cc1ccc(O)cc1)C(=O)N[C@H]1CC/C=C\SC[C@@H](C(=O)N[C@@H](Cc2ccccc2)C(=O)O)NC(=O)[C@H](Cc2c[nH]cn2)NC1=O` (H-DRVY[X1]HCF-OH; thioether 5-7), in assay [2], the NA result was “inactive”.
In assay [1], `NC(N)=NCCC[C@H](NC(=O)[C@@H](N)CC(=O)O)C(=O)N[C@H]1CS/C=C/CC[C@@H](C(=O)N[C@@H](Cc2cnc[nH]2)C(=O)N2CCC[C@H]2C(=O)N[C@@H](Cc2ccccc2)C(=O)O)NC(=O)[C@H](Cc2ccc(O)cc2)NC1=O` (H-DRCY[X2]HPF-OH; thioether 3-5) came in with a Ki of 1.7 nM.
For `CC(C)[C@H](NC(=O)[C@H](CCCN=C(N)N)NC(=O)[C@@H](N)CC(=O)O)C(=O)N[C@@H](Cc1ccc(O)cc1)C(=O)N[C@H]1CC/C=C/SC[C@@H](C(=O)N[C@@H](Cc2ccccc2)C(=O)O)NC(=O)[C@H](Cc2c[nH]cn2)NC1=O` (H-DRVY[X2]HCF-OH; thioether 5-7), the NA entry in assay [2] was “inactive”.
In the case of `CC[C@H](C)[C@H](NC(=O)[C@H](Cc1ccc(O)cc1)NC(=O)[C@@H](NC(=O)[C@H](CCCNC(=N)N)NC(=O)[C@@H](N)CC(=O)O)C(C)C)C(=O)N[C@@H](Cc1cnc[nH]1)C(=O)N1CCC[C@H]1C(=O)N[C@@H](Cc1ccccc1)C(=O)O` [ANGIOTENSIN II], the 50% effective concentration (EC50) in the assay listed under Oryctolagus cuniculus worked out at 1.4 nM. That is a single-digit nanomolar value.
Still for that read-out and setting: then `NC(N)=NCCC[C@H](NC(=O)[C@@H](N)CC(=O)O)C(=O)N[C@H]1CS/C=C/CC[C@@H](C(=O)N[C@@H](Cc2c[nH]cn2)C(=O)N2CCC[C@H]2C(=O)N[C@@H](Cc2ccccc2)C(=O)O)NC(=O)[C@H](Cc2ccc(O)cc2)NC1=O` (H-DRCY[X2]HPF-OH; thioether 3-5), with 16.1 nM.
